Data on 21 molecules can be found in US11168095B2, “ASK1 inhibiting agents” (BIOGEN MA INC., priority 2017, dated 2021).

Where two headings read alike, the source gives them in different places. Some results are limits rather than exact numbers.

In one experiment the target is GST-hASK1 (Homo sapiens (Human), UniProt Q99683). Nature of the experiment: ASK1 TR-FRET assay. It is filed as biochemical. Particulars: 5 nM GST-hASK1, 100 μM ATP, 2 μM STK Substrate 3. The protocol:
The protein kinase activity of 5 nM GST-hASK1(Life Technologies PV4011) was assayed with 100 μM ATP and 2 μM of HTRF biotinylated STK Substrate 3 (CisBio Kit 62ST3PEJ), at ambient temperature in 25 mM Hepes, pH 7.5, 50 mM NaCl, 10 mM MgCl2, 0.02% Brij-35, 1 mM DTT, and 1% DMSO.
After a 10 minute pre-incubation, ASK1 protein kinase activity was initiated by addition of 10 μL of 300 μM ATP.
For orientation: In TR-FRET formats the signal depends on donor and acceptor labels being close together.

In experiment [1] the target is ASK1 T838 auto phosphorylation in HEK-293T cells (Homo sapiens (Human), UniProt Q99683). Put plainly: ASK1 (AUTO PHOS T838) assay, MSD format. Particulars: HEK 293T cells transfected with ASK1-V5 full length plasmid, compounds 1 hr at 37° C.; read-out: IC50. It is filed as cell-based.
ASK1 T838 auto phosphorylation in HEK-293T cells, sequence (Q99683 whole entry): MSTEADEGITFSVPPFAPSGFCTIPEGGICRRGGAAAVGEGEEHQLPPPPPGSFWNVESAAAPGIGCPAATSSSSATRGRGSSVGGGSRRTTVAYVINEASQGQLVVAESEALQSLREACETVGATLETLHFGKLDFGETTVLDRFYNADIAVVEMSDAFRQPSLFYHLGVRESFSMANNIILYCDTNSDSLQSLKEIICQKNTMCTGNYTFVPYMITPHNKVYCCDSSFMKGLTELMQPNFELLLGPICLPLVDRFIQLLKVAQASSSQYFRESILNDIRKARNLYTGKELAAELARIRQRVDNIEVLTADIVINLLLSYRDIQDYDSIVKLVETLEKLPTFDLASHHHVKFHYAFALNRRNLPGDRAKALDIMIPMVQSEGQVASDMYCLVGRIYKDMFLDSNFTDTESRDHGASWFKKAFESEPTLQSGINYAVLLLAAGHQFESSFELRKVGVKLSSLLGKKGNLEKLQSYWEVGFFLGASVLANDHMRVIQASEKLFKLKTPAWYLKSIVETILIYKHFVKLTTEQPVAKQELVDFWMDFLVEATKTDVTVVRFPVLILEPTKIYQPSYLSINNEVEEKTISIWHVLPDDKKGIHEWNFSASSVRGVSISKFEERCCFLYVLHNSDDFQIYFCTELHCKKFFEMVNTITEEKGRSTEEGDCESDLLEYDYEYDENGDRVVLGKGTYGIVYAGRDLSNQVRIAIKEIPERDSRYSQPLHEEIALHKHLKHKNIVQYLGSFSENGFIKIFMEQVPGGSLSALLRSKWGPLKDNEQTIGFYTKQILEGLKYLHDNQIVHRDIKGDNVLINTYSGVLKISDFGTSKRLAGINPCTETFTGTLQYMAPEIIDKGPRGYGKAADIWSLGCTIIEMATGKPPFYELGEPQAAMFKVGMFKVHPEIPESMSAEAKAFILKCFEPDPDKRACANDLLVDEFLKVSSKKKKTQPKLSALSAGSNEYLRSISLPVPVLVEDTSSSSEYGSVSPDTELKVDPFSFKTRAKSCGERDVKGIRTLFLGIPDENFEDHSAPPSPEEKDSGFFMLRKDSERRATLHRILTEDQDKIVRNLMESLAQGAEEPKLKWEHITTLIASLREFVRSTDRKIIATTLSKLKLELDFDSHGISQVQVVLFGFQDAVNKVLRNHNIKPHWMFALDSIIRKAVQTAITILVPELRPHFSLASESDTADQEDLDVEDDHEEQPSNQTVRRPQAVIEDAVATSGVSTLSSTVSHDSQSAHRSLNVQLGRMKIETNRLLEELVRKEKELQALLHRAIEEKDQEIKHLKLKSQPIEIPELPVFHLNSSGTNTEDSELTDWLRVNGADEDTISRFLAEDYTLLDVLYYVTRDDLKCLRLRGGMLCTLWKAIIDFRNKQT
A further experiment addresses ASK1/MAP3K5 (Homo sapiens (Human), UniProt Q99683). Nature of the experiment: ASK1/MAP3K5 assay by Reaction Biology Corp. It counts as biochemical. The protocol: ASK1/MAP3K5 was used as the protein kinase and 20 μM of myelin basic protein (MBP) and 10 μM ATP were used as the substrate.
[2] abbreviates: 20 μM myelin basic protein (MBP), 10 μM ATP.

GST-hASK1, sequence (Q99683 649-946): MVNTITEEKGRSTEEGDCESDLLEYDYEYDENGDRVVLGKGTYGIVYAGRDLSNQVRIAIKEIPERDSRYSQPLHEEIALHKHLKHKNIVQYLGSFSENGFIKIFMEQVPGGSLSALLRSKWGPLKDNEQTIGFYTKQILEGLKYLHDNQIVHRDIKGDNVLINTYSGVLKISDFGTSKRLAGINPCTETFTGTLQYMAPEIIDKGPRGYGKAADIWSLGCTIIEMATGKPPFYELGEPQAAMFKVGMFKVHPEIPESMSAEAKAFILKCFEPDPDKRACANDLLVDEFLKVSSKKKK
ASK1/MAP3K5, sequence (Q99683 whole entry): as the sequence (Q99683 whole entry) above

Turning to `C[C@@H]1CCCOc2ccc(-c3cnn(C)c3)cc2C(=O)Nc2cccc(n2)-c2nncn21` [Example 95, (R)-10-Methyl-5^5-(1-methyl-1H-pyrazol-4-yl)-1^4H-6-oxa-3-aza-2(2,6)-pyridina-1(3,4)-triazola-5(1,2)-benzenacyclodecaphan-4-one], the IC50 at GST-hASK1 was in the range of 100 to 1000 nM; in experiment [1], 1000 to 10000 nM.

On to `O=C1Nc2cccc(n2)-c2nncn2CCCCCOc2ccc(Br)cc21` [Example 170, 5^5-Bromo-1^4H-6-oxa-3-aza-2(2,6)-pyridina-1(3,4)-triazola-5(1,2)-benzenacycloundecaphan-4-one], for which the IC50 on GST-hASK1 was less than 100 nM.

The molecule `O=C1Nc2cccc(n2)-c2nncn2CCCCOc2ccc(C(=O)N3CCCC3)cc21` [Example 31, 5^5-(Pyrrolidine-1-carbonyl)-1^4H-6-oxa-3-aza-2(2,6)-pyridina-1(3,4)-triazola-5(1,2)-benzenacyclodecaphan-4-one] came in with an IC50 on GST-hASK1 of 100 to 1000 nM.

With `O=C1Nc2cccc(n2)-c2nncn2CCCOc2ccc(Br)cc21` [Example 183, 5^5-Bromo-1^4H-6-oxa-3-aza-2(2,6)-pyridina-1(3,4)-triazola-5(1,2)-benzenacyclononaphan-4-one], at GST-hASK1, the half-inhibitory concentration (IC50) fell in the range of 1000 to 10000 nM.

For `O=C1Nc2cccc(n2)-c2nncn2CCCOc2ccc(N3CCOCC3)cc21` [Example 184, 5^5-Morpholino-1^4H-6-oxa-3-aza-2(2,6)-pyridina-1(3,4)-triazola-5(1,2)-benzenacyclononaphan-4-one], the IC50 against GST-hASK1 lay within 100 to 1000 nM.

Turning to `C[C@H]1CCCOc2cc(F)c(OCCN(C)C)cc2C(=O)Nc2cccc(n2)-c2nncn21` [Example 116, (S)-5^5-(2-(Dimethylamino)ethoxy)-5^4-fluoro-10-methyl-1^4H-6-oxa-3-aza-2(2,6)-pyridina-1(3,4)-triazola-5(1,2)-benzenacyclodecaphan-4-one], the 50% inhibitory concentration (IC50) in experiment [1] is less than 1000 nM; against ASK1/MAP3K5 it was less than 100 nM.

Turning to `CN(C)Cc1ccc2c(c1)C(=O)Nc1cccc(n1)-c1nncn1CCCCO2` [Example 48, 5^5-((Dimethylamino)methyl)-1^4H-6-oxa-3-aza-2(2,6)-pyridina-1(3,4)-triazola-5(1,2)-benzenacyclodecaphan-4-one], the IC50 is less than 1000 nM in experiment [1] and less than 100 nM at ASK1/MAP3K5 (setting [2]).

Regarding `O=C1Nc2cccc(n2)-c2nncn2CCCCOc2cc(F)c(-c3ccnnc3)cc21` [Example 61, 5^4-Fluoro-5^5-(pyridazin-4-yl)-1^4H-6-oxa-3-aza-2(2,6)-pyridina-1(3,4)-triazola-5(1,2)-benzenacyclodecaphan-4-one], the half-maximal inhibitory concentration (IC50) in experiment [1] is less than 1000 nM; on ASK1/MAP3K5 (setting [2]), less than 100 nM.

Turning to `CN1CC=C(c2cc3c(cc2F)OCCCCn2cnnc2-c2cccc(n2)NC3=O)CC1` [Example 69, 5^4-Fluoro-5^5-(1-methyl-1,2,3,6-tetrahydropyridin-4-yl)-1^4H-6-oxa-3-aza-2(2,6)-pyridina-1(3,4)-triazola-5(1,2)-benzenacyclodecaphan-4-one], the IC50 in experiment [1] was less than 1000 nM; against ASK1/MAP3K5 (setting [2]) it was less than 100 nM.

Consider `CN1CCC(c2cc3c(cc2F)OCCCCn2cnnc2-c2cccc(n2)NC3=O)CC1` [Example 70, 5^4-Fluoro-5^5-(1-methylpiperidin-4-yl)-1^4H-6-oxa-3-aza-2(2,6)-pyridina-1(3,4)-triazola-5(1,2)-benzenacyclodecaphan-4-one], for which the IC50 is less than 1000 nM in experiment [1] and less than 100 nM at ASK1/MAP3K5 (setting [2]).

Consider `C[C@H]1CCCOc2cc(F)c(-c3cnn(CCN(C)C)c3)cc2C(=O)Nc2cccc(n2)-c2nncn21` [Example 115, (S)-5^5-(1-(2-(Dimethylamino)ethyl)-1H-pyrazol-4-yl)-5^4-fluoro-10-methyl-1^4H-6-oxa-3-aza-2(2,6)-pyridina-1(3,4)-triazola-5(1,2)-benzenacyclodecaphan-4-one], for which the half-inhibitory concentration (IC50) is less than 1000 nM in experiment [1] and less than 100 nM on ASK1/MAP3K5 (setting [2]).

On to `CN1CC=C(c2ccc3c(c2)OCCCCn2cnnc2-c2cccc(n2)NC3=O)CC1` [Example 78, 5^4-(1-Methyl-1,2,3,6-tetrahydropyridin-4-yl)-1^4H-6-oxa-3-aza-2(2,6)-pyridina-1(3,4)-triazola-5(1,2)-benzenacyclodecaphan-4-one], for which the IC50 is less than 1000 nM in experiment [1] and less than 100 nM at ASK1/MAP3K5.

For the molecule `CN1CCC(c2ccc3c(c2)OCCCCn2cnnc2-c2cccc(n2)NC3=O)CC1` [Example 79, 5^4-(1-Methylpiperidin-4-yl)-1^4H-6-oxa-3-aza-2(2,6)-pyridina-1(3,4)-triazola-5(1,2)-benzenacyclodecaphan-4-one], the concentration for half-maximal inhibition (IC50) is less than 1000 nM in experiment [1] and less than 100 nM on ASK1/MAP3K5 (setting [2]).

As to `C[C@H]1CCOc2cc(F)c(Br)cc2C(=O)Nc2cccc(n2)-c2nncn2C1` [Example 124, (S)-5^5-Bromo-5^4-fluoro-9-methyl-1^4H-6-oxa-3-aza-2(2,6)-pyridina-1(3,4)-triazola-5(1,2)-benzenacyclodecaphan-4-one], the values for the IC50 (in experiment [1]; against ASK1/MAP3K5 (setting [2])) were less than 1000 nM and less than 100 nM, respectively.

For `COCCOc1cc2c(cc1F)OCCCCn1cnnc1-c1cccc(n1)NC2=O` [Example 75, 5^4-Fluoro-5^5-(2-methoxyethoxy)-1^4H-6-oxa-3-aza-2(2,6)-pyridina-1(3,4)-triazola-5(1,2)-benzenacyclodecaphan-4-one], the IC50 in experiment [1] was less than 1000 nM; on ASK1/MAP3K5 (setting [2]), less than 100 nM.

On to `C[C@H]1CCCOc2cc(N3CCN(C)CC3)ccc2C(=O)Nc2cccc(n2)-c2nncn21` [Example 122, (S)-10-Methyl-5^4-(4-methylpiperazin-1-yl)-1^4H-6-oxa-3-aza-2(2,6)-pyridina-1(3,4)-triazola-5(1,2)-benzenacyclodecaphan-4-one], for which the 50% inhibitory concentration (IC50) in experiment [1] was less than 1000 nM; against ASK1/MAP3K5 (setting [2]), less than 100 nM.

For `CC(C)n1cc(-c2ccc3c(c2)C(=O)Nc2cccc(n2)-c2nncn2CCCCO3)cn1` [Example 36, 5^5-(1-Isopropyl-1H-pyrazol-4-yl)-1^4H-6-oxa-3-aza-2(2,6)-pyridina-1(3,4)-triazola-5(1,2)-benzenacyclodecaphan-4-one], the IC50 in experiment [1] was less than 1000 nM; on ASK1/MAP3K5 (setting [2]), less than 100 nM.

In the case of `Cc1cn(-c2ccc3c(c2)C(=O)Nc2cccc(n2)-c2nncn2CCC[C@@H](C)O3)cn1` [Example 149, (R)-7-Methyl-5^5-(4-methyl-1H-imidazol-1-yl)-1^4H-6-oxa-3-aza-2(2,6)-pyridina-1(3,4)-triazola-5(1,2)-benzenacyclodecaphan-4-one], the IC50 in experiment [1] is less than 1000 nM; on ASK1/MAP3K5, less than 100 nM.

Consider `Cc1c(-c2cc3c(cc2F)OCCCCn2cnnc2-c2cccc(n2)NC3=O)cnn1C` [Example 62, 5^5-(1,5-Dimethyl-1H-pyrazol-4-yl)-5^4-fluoro-1^4H-6-oxa-3-aza-2(2,6)-pyridina-1(3,4)-triazola-5(1,2)-benzenacyclodecaphan-4-one], for which the concentration for half-maximal inhibition (IC50) in experiment [1] was less than 1000 nM; against ASK1/MAP3K5 (setting [2]) it was less than 100 nM.

For “(R)-5^4-Bromo-10-methyl-1^4H-6-oxa-3-aza-2(2,6)-pyridina-1(3,4)-triazola-5(1,2)-benzenacyclodecaphan-4-one [Example 121]”, the figures for the IC50 (in experiment [1]; against ASK1/MAP3K5 (setting [2])) were more than 10000 nM and 1000 to 10000 nM, respectively.

On to `Cc1cc(C)n(-c2ccc3c(c2)C(=O)Nc2cccc(n2)-c2nncn2CCCCO3)n1` [Example 46, 5^5-(3,5-Dimethyl-1H-pyrazol-1-yl)-1^4H-6-oxa-3-aza-2(2,6)-pyridina-1(3,4)-triazola-5(1,2)-benzenacyclodecaphan-4-one], for which the values for the IC50 (in experiment [1]; on ASK1/MAP3K5 (setting [2])) were less than 1000 nM and less than 100 nM, respectively.

The term IC50 denotes the concentration that gives 50% inhibition.
